In patent US6867284B1, “Peptide inhibitors of hepatitis C virus NS3 protease” (Istituto di Ricerche di Biologia Molecolare P. Angeletti …, priority 1998, dated 2005) one finds IC50 data, which are given here for 42 compounds.

Numbered stars: 1 amine (or outer) side, 2 acyl side, 3 side chain; on linkers, the order of the positions; unused ones are H or OH. Square brackets hold non-standard residues; d marks the D form. Peptide text beside a SMILES is read from it. * marks the point of attachment. ξ: configuration not given here. ξAbu(4,4-F2)ψ(COCO) = O=C(C(=O)[*:2])C(CC(F)F)N[*:1]; Dip = N[C@H](C(=O)O)C(c1ccccc1)c1ccccc1; X6 = O=C(NS(=O)(=O)c1ccccc1)C(CC(F)F)N*; X8 = O=C(c1nc2ccccc2o1)C(CC(F)F)N*; ξAla(CF3) = NC(CC(F)(F)F)C(=O)O; Cha = N[C@@H](CC1CCCCC1)C(=O)O; Ile(3ξ) = CCC(C)[C@H](N)C(=O)O; X3 = O=C(C(CC(F)F)N[*:1])[*:2]; Suc = O=C(CCC(=O)[*:2])[*:1]; NHBn = c1ccc(CN*)cc1

In the first experiment the target is T1, HCV NS3 protease (Hepatitis C virus genotype 1b, UniProt P26663).
T1 construct: an NS3/4A complex comprising the NS3 protease domain
T1 sequence (P26663 1027-1208, other chains not shown): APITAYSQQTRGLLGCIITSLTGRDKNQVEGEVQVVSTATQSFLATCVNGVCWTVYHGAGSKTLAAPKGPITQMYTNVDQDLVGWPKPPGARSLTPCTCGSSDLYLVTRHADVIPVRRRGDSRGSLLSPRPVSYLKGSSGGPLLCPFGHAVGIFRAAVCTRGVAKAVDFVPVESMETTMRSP
As to the kind of experiment: Inhibition of NS3 protease (HPLC cleavage assay, NS3/4A complex with Pep4AK, substrate peptide 4AB). It is filed as biochemical. Conditions: IC50, Table 1 hexapeptides, cell printed without unit. As to the method: Buffer solutions containing 80 μM Pep4AK were preincubated for 10 minutes with 10-200 nM protease and reactions were started by addition of substrate. Six duplicate data points at different substrate concentrations were used to calculate kinetic parameters. Incubation times were chosen in order to obtain <7% substrate conversion and reactions were stopped by addition of 40 μl 1% TFA. Cleavage of peptide substrates was determined by HPLC using a Merck-Hitachi chromatograph equipped with an autosampler. 80 μl samples were injected on a Lichrospher C18 reversed phase cartridge column (4×74 mm, 5 μm, Merck) and fragments were separated using a 10-40% acetonitrile gradient a 5%/min using a flow rate of 2.5 ml/min. Peak detection was accomplished by monitoring both the absorbance at 220 nm and tyrosine fluorescence (λex=260 nm, λem=305 nm). Cleavage products were quantitated by integration of chromatograms with respect to appropriate standards. Kinetic parameters were calculated from nonlinear least-squares fit of initial rates as a function of substrate concentration with the help of a Kaleidagraph software, assuming Michaelis-Menten kinetics.
Ki values of peptide inhibitors were calculated from substrate titration experiments performed in the presence of increasing amounts of inhibitor. Experimental data sets were simultaneously fitted to eq.1 using a multicurve fit macro with the help of a Sigmaplot software: V=(VmaxS)/(Km(1+[…])+S); (eq.1)
Alternatively, Ki values were derived from IC50 values, calculated using a four-parameter logistic function, according to eq.2: IC50−(1+S/Km)Ki (eq.2)
For orientation: IC50 means the concentration that inhibits the measured activity by half. Compound `CSCC[C@H](NC(=O)[C@H](CCC(=O)O)NC(=O)[C@H](CC(=O)O)NC(C)=O)C(=O)N[C@@H](CCC(=O)O)C(=O)N[C@@H](CCC(=O)O)C(=O)NC(CC(F)F)C(=O)O` (stereo partly drawn) [Compound 1a] (Ac-DEMEE[X3]-OH) came in with a half-inhibitory concentration (IC50) of 3000 nM.

Staying with this experiment, now noted: Table 1 hexapeptides, cells printed in nM; read-out: IC50.
Turning to `CC(=O)N[C@@H](CC(=O)O)C(=O)N[C@@H](CCC(=O)O)C(=O)N[C@H](C(=O)N[C@@H](CCC(=O)O)C(=O)N[C@@H](CC1CCCCC1)C(=O)NC(CC(F)F)C(=O)O)C(c1ccccc1)c1ccccc1` (single isomer, unassigned) [Compound 1b (L)], the IC50 was 20 nM. Regarding `CC(=O)N[C@@H](CC(=O)O)C(=O)N[C@@H](CCC(=O)O)C(=O)N[C@H](C(=O)N[C@@H](CCC(=O)O)C(=O)N[C@@H](CC1CCCCC1)C(=O)NC(CC(F)F)C(=O)C(=O)NCc1ccccc1)C(c1ccccc1)c1ccccc1` (stereo partly drawn) [Compound 1e] (Ac-DE[Dip]E[Cha][ξAbu(4,4-F2)ψ(COCO)]-NHBn), the IC50 amounted to 5 nM.

Regarding `CCC(C)[C@H](NC(=O)[C@@H](NC(=O)[C@H](CCC(=O)O)NC(=O)CCC(=O)O)C(c1ccccc1)c1ccccc1)C(=O)N[C@@H](CC1CCCCC1)C(=O)NC(CC(F)F)C(=O)NS(=O)(=O)c1ccccc1` (stereo partly drawn) [Compound 1o] (Suc-E[Dip][Ile(3ξ)][Cha]-X6), the IC50 came out at 800 nM. With `CC(=O)N[C@@H](CC(=O)O)C(=O)N[C@@H](CCC(=O)O)C(=O)N[C@H](C(=O)N[C@@H](CCC(=O)O)C(=O)N[C@@H](CC1CCCCC1)C(=O)NC(CC(F)(F)F)C(=O)O)C(c1ccccc1)c1ccccc1` (stereo partly drawn) [Compound 1g] (Ac-DE[Dip]E[Cha][ξAla(CF3)]-OH), the IC50 was found to be 100 nM.

Take `CSCC[C@H](NC(=O)[C@H](CCC(=O)O)NC(=O)[C@H](CC(=O)O)NC(C)=O)C(=O)N[C@@H](CCC(=O)O)C(=O)N[C@@H](CCC(=O)O)C(=O)NC(C=O)CC(F)F` (stereo partly drawn) [Compound 1n] (Ac-DEMEE[X3]-aldehyde): the IC50 worked out at 148 nM. For the compound `CC(=O)N[C@@H](CC(=O)O)C(=O)N[C@@H](CCC(=O)O)C(=O)N[C@H](C(=O)N[C@@H](CCC(=O)O)C(=O)N[C@@H](CC1CCCCC1)C(=O)NC(CC(F)F)C(=O)c1nc2ccccc2o1)C(c1ccccc1)c1ccccc1` (stereo partly drawn) [Compound 1j] (Ac-DE[Dip]E[Cha]-X8), the IC50 amounted to 600 nM.

With `CC(=O)N[C@@H](CC(=O)O)C(=O)N[C@@H](CCC(=O)O)C(=O)N[C@H](C(=O)N[C@@H](CCC(=O)O)C(=O)N[C@@H](CC1CCCCC1)C(=O)NC(C=O)CC(F)F)C(c1ccccc1)c1ccccc1` (single isomer, unassigned) [Compound 1c (D)], the IC50 amounted to 43 nM.

The same experiment, now with this note: Table 2 tetrapeptides and tripeptides; read-out: IC50.
For `CCC(C)[C@H](NC(=O)OCc1ccccc1)C(=O)N[C@@H](CC1CCCCC1)C(=O)NC(CC(F)F)C(=O)C(=O)O` (stereo partly drawn) [Compound 3b], the IC50 was 1400 nM. In the case of `CCC(C)[C@H](NC(=O)OCc1ccccc1)C(=O)N[C@@H](C)C(=O)NC(CC(F)F)C(=O)C(=O)O` (stereo partly drawn) [Compound 3g], the IC50 stood at 16000 nM.

For the compound `CCC(C)[C@H](NC(=O)OCc1ccc(C(=O)OC)cc1)C(=O)N[C@@H](CC(C)C)C(=O)NC(CC(F)F)C(=O)C(=O)O` (stereo partly drawn) [Compound 4c], the IC50 worked out at 1700 nM.

Turning to `CCC(C)[C@H](NC(=O)OCc1ccccc1)C(=O)N[C@@H](CCC(=O)O)C(=O)NC(CC(F)F)C(=O)C(=O)O` (stereo partly drawn) [Compound 3d], the IC50 was found to be 9300 nM. As to `CC(C)C[C@H](NC(=O)[C@H](CCC(=O)O)NC(=O)OC(C)(C)C)C(=O)NC(CC(F)F)C(=O)C(=O)O` (stereo partly drawn) [Compound 5j], the IC50 was found to be 330 nM.

On to `CC(C)C[C@H](NC(=O)[C@H](Cc1cccc(Br)c1)NC(=O)OC(C)(C)C)C(=O)NC(CC(F)F)C(=O)C(=O)O` (stereo partly drawn) [Compound 5t], for which the IC50 was 2500 nM. On the same count and under the same terms, with `CC(C)C[C@H](NC(=O)[C@H](CCC(=O)OCc1ccccc1)NC(=O)OC(C)(C)C)C(=O)NC(CC(F)F)C(=O)C(=O)O` (stereo partly drawn) [Compound 5i] the figure was 5800 nM.

As to `CC(C)C[C@H](NC(=O)[C@H](Cc1ccccc1)NC(=O)OC(C)(C)C)C(=O)NC(CC(F)F)C(=O)C(=O)O` (stereo partly drawn) [Compound 5c], the IC50 turned out to be 1500 nM.

As to `CC(=O)N[C@H](C(=O)N[C@@H](CCC(=O)O)C(=O)N[C@@H](CC1CCCCC1)C(=O)NC(CC(F)F)C(=O)C(=O)NCc1ccccc1)C(c1ccccc1)c1ccccc1` (stereo partly drawn) [Compound 2b], the 50% inhibitory concentration (IC50) is 11400 nM. For `CC(C)COC(=O)N[C@@H](CCC(=O)O)C(=O)N[C@@H](CC(C)C)C(=O)NC(C=O)CC(F)F` (stereo partly drawn) [Compound 6a], the IC50 came to 26000 nM. Consider `CC(=O)N[C@H](C(=O)N[C@@H](CCC(=O)O)C(=O)N[C@@H](CC1CCCCC1)C(=O)NC(CC(F)F)C(=O)C(=O)O)C(c1ccccc1)c1ccccc1` (stereo partly drawn) [Compound 2a], for which the IC50 was 10000 nM. With `CC(C)C[C@H](NC(=O)[C@H](CC(=O)OCc1ccccc1)NC(=O)OC(C)(C)C)C(=O)NC(CC(F)F)C(=O)C(=O)O` (stereo partly drawn) [Compound 5l], the IC50 worked out at 3500 nM. Same read-out and setting: with `CCC(C)[C@H](NC(=O)NCc1ccccc1)C(=O)N[C@@H](CC(C)C)C(=O)NC(CC(F)F)C(=O)C(=O)O` (stereo partly drawn) [Compound 4a] the figure was 6500 nM.

The same experiment, now with this note: Table 3 capped dipeptide keto acids; read-out: IC50.
As for `CC(C)C[C@H](NC(=O)Cc1ccccc1C(=O)O)C(=O)NC(CC(F)F)C(=O)C(=O)O` (single isomer, unassigned) [Compound 8e], the IC50 is 13000 nM. As to `CC(C)C[C@H](NC(=O)[C@H](O)c1ccc(C(F)(F)F)cc1)C(=O)NC(CC(F)F)C(=O)C(=O)O` (mixture of isomers) [Compound 8o], the IC50 is 56000 nM. `CC(C)C[C@H](NC(=O)Cc1cccc(CC(=O)O)c1)C(=O)NC(CC(F)F)C(=O)C(=O)O` (mixture of isomers) [Compound 8c]: the IC50 was 7000 nM. Consider `COc1ccc(C(Oc2ccccc2)C(=O)N[C@@H](CC(C)C)C(=O)NC(CC(F)F)C(=O)C(=O)O)cc1` (mixture of isomers) [Compound 8k], for which the 50% inhibitory concentration (IC50) was determined as 72000 nM. `CC(C)C[C@H](NC(=O)C(Sc1ccccc1)c1ccccc1)C(=O)NC(CC(F)F)C(=O)C(=O)O` (mixture of isomers) [Compound 8i]: the IC50 worked out at 28000 nM.

On to `CC(C)C[C@H](NC(=O)CC1(CC(=O)O)CCCCC1)C(=O)NC(CC(F)F)C(=O)C(=O)O` (mixture of isomers) [Compound 7q], for which the IC50 is 2000 nM.

Turning to `CC(C)C[C@H](NC(=O)c1ccccc1-c1ccccc1C(=O)O)C(=O)NC(CC(F)F)C(=O)C(=O)O` (single isomer, unassigned) [Compound 8g], the 50% inhibitory concentration (IC50) is 4000 nM. With `CC(C)C[C@H](NC(=O)[C@H](O)c1ccc(Cl)cc1)C(=O)NC(CC(F)F)C(=O)C(=O)O` (mixture of isomers) [Compound 8q], the half-maximal inhibitory concentration (IC50) was 25000 nM. For the compound `CCCCC(=O)N[C@@H](CC(C)C)C(=O)NC(CC(F)F)C(=O)C(=O)O` (single isomer, unassigned) [Compound 7b], the half-inhibitory concentration (IC50) came out at 56000 nM.

The experiment is the same for the next values; noted with them: Table 4 indoline keto acids and related; read-out: IC50.
Turning to `COCCOCC1(C(=O)N[C@@H](CC(C)C)C(=O)NC(CC(F)F)C(=O)C(=O)O)Cc2ccccc2N1` (mixture of isomers) [Compound 9m], the IC50 was determined as 57000 nM. For `CC(C)C[C@H](NC(=O)C1Cc2ccc(OCC3CCOC3)cc2N1)C(=O)NC(CC(F)F)C(=O)C(=O)O` (mixture of isomers) [Compound 10h], the IC50 worked out at 16000 nM.

Take `CC(C)C[C@H](NC(=O)C1Cc2ccc(OC3CCOC3)cc2N1)C(=O)NC(CC(F)F)C(=O)C(=O)O` (mixture of isomers) [Compound 10g]: the half-inhibitory concentration (IC50) is 23000 nM. Consider `CC(C)C[C@H](NC(=O)C1(CC(C)C)CCC(=O)N1)C(=O)NC(CC(F)F)C(=O)C(=O)O` (mixture of isomers) [Compound 11], for which the IC50 came out at 43000 nM. Turning to `CC(C)C[C@H](NC(=O)C1(Cc2cccc(Br)c2)Cc2ccccc2N1)C(=O)NC(CC(F)F)C(=O)C(=O)O` (mixture of isomers) [Compound 9r], the IC50 was 100000 nM. As for `CC(C)CCC1(C(=O)N[C@@H](CC(C)C)C(=O)NC(CC(F)F)C(=O)C(=O)O)Cc2ccccc2N1` (mixture of isomers) [Compound 9f], the IC50 came to 120000 nM. As to `CC(C)C[C@H](NC(=O)C1(CC2CCCCC2)Cc2ccccc2N1)C(=O)NC(CC(F)F)C(=O)C(=O)O` (mixture of isomers) [Compound 9l], the IC50 came out at 31000 nM. On to `CC(C)CC1c2ccccc2NC1C(=O)N[C@@H](CC(C)C)C(=O)NC(CC(F)F)C(=O)C(=O)O` (single isomer, unassigned) [Compound 12], for which the IC50 amounted to 26000 nM. In the case of `CC(C)C[C@H](NC(=O)c1cc2ccccc2[nH]1)C(=O)NC(CC(F)F)C(=O)C(=O)O` (single isomer, unassigned) [Compound 13], the IC50 worked out at 70000 nM.

`CCC(CC)CC1(C(=O)N[C@@H](CC(C)C)C(=O)NC(CC(F)F)C(=O)C(=O)O)Cc2ccccc2N1` (single isomer, unassigned) [Compound 9g]: the half-maximal inhibitory concentration (IC50) is 15000 nM. The same measure, in the same setting: with `COc1ccc2c(c1)NC(C(=O)N[C@@H](CC(C)C)C(=O)NC(CC(F)F)C(=O)C(=O)O)C2` (single isomer, unassigned) [Compound 10a] the figure was 25000 nM; with `CC(C)C[C@H](NC(=O)C1(CC(=O)O)Cc2ccccc2N1)C(=O)NC(CC(F)F)C(=O)C(=O)O` (mixture of isomers) [Compound 9n], 81000 nM.
